Reference: ChEMBL document CHEMBL3872249, “Computer design, synthesis, and bioactivity analyses of drugs like fingolimod used in the treatment of multiple sclerosis” (Bioorg Med Chem, 2017)

Assays:
Assay type in all cases: functional
SK-N-SH [1] = assay: Effect on CSF1 mRNA expression in human SK-N-SH cells at EC10 by qPCR method relative to beta-actin
SH-SY5Y [2] = assay: Effect on AGTR2 mRNA expression in human SH-SY5Y cells at EC10 by qPCR method relative to beta-actin
SH-SY5Y [3] = assay: Effect on IL1B mRNA expression in human SH-SY5Y cells at EC10 by qPCR method relative to beta-actin
U-118-MG [4] = assay: Effect on CXCL10 mRNA expression in human U118MG cells at EC10 by qPCR method relative to beta-actin
SK-N-SH [5] = assay: Effect on JUN mRNA expression in human SK-N-SH cells at EC10 by qPCR method relative to beta-actin
SK-N-SH [6] = assay: Effect on CCL3 mRNA expression in human SK-N-SH cells at EC10 by qPCR method relative to beta-actin
SK-N-SH [7] = assay: Effect on GRM1 mRNA expression in human SK-N-SH cells at EC10 by qPCR method relative to beta-actin
SH-SY5Y [8] = assay: Effect on MYC mRNA expression in human SH-SY5Y cells at EC10 by qPCR method relative to beta-actin
SK-N-SH [9] = assay: Effect on IL1B mRNA expression in human SK-N-SH cells at EC10 by qPCR method relative to beta-actin
SH-SY5Y [10] = assay: Effect on OPRD1 mRNA expression in human SH-SY5Y cells at EC10 by qPCR method relative to beta-actin
U-118-MG [11] = assay: Effect on IFNG mRNA expression in human U118MG cells at EC10 by qPCR method relative to beta-actin
SH-SY5Y [12] = assay: Effect on FGF2 mRNA expression in human SH-SY5Y cells at EC10 by qPCR method relative to beta-actin
SH-SY5Y [13] = assay: Effect on PTGDR mRNA expression in human SH-SY5Y cells at EC10 by qPCR method relative to beta-actin
SH-SY5Y [14] = assay: Effect on CCL3 mRNA expression in human SH-SY5Y cells at EC10 by qPCR method relative to beta-actin
U-118-MG [15] = assay: Effect on COL1A1 mRNA expression in human U118MG cells at EC10 by qPCR method relative to beta-actin
SH-SY5Y [16] = assay: Effect on IFNG mRNA expression in human SH-SY5Y cells at EC10 by qPCR method relative to beta-actin
U-118-MG [17] = assay: Effect on FGF2 mRNA expression in human U118MG cells at EC10 by qPCR method relative to beta-actin
SH-SY5Y [18] = assay: Effect on AKT1 mRNA expression in human SH-SY5Y cells at EC10 by qPCR method relative to beta-actin
U-118-MG [19] = assay: Effect on AGTR2 mRNA expression in human U118MG cells at EC10 by qPCR method relative to beta-actin
U-118-MG [20] = assay: Effect on TSHR mRNA expression in human U118MG cells at EC10 by qPCR method relative to beta-actin
SK-N-SH [21] = assay: Effect on AKT1 mRNA expression in human SK-N-SH cells at EC10 by qPCR method relative to beta-actin
SH-SY5Y [22] = assay: Effect on NOS2 mRNA expression in human SH-SY5Y cells at EC10 by qPCR method relative to beta-actin
SK-N-SH [23] = assay: Effect on BCL2 mRNA expression in human SK-N-SH cells at EC10 by qPCR method relative to beta-actin
SK-N-SH [24] = assay: Effect on EDNRA mRNA expression in human SK-N-SH cells at EC10 by qPCR method relative to beta-actin
SH-SY5Y [25] = assay: Effect on CFLAR mRNA expression in human SH-SY5Y cells at EC10 by qPCR method relative to beta-actin
U-118-MG [26] = assay: Effect on EDNRA mRNA expression in human U118MG cells at EC10 by qPCR method relative to beta-actin
SH-SY5Y [27] = assay: Effect on STAT3 mRNA expression in human SH-SY5Y cells at EC10 by qPCR method relative to beta-actin
SK-N-SH [28] = assay: Effect on NOS2 mRNA expression in human SK-N-SH cells at EC10 by qPCR method relative to beta-actin
SK-N-SH [29] = assay: Effect on CFLAR mRNA expression in human SK-N-SH cells at EC10 by qPCR method relative to beta-actin
SH-SY5Y [30] = assay: Effect on TSHR mRNA expression in human SH-SY5Y cells at EC10 by qPCR method relative to beta-actin
SK-N-SH [31] = assay: Effect on FOXP3 mRNA expression in human SK-N-SH cells at EC10 by qPCR method relative to beta-actin
SK-N-SH [32] = assay: Effect on COL1A1 mRNA expression in human SK-N-SH cells at EC10 by qPCR method relative to beta-actin
U-118-MG [33] = assay: Effect on CFLAR mRNA expression in human U118MG cells at EC10 by qPCR method relative to beta-actin
SH-SY5Y [34] = assay: Effect on JUN mRNA expression in human SH-SY5Y cells at EC10 by qPCR method relative to beta-actin
U-118-MG [35] = assay: Effect on JUN mRNA expression in human U118MG cells at EC10 by qPCR method relative to beta-actin
SH-SY5Y [36] = assay: Effect on MAG mRNA expression in human SH-SY5Y cells at EC10 by qPCR method relative to beta-actin
U-118-MG [37] = assay: Effect on MYC mRNA expression in human U118MG cells at EC10 by qPCR method relative to beta-actin
U-118-MG [38] = assay: Effect on CCL3 mRNA expression in human U118MG cells at EC10 by qPCR method relative to beta-actin
SK-N-SH [39] = assay: Effect on CXCL11 mRNA expression in human SK-N-SH cells at EC10 by qPCR method relative to beta-actin
U-118-MG [40] = assay: Effect on IL2 mRNA expression in human U118MG cells at EC10 by qPCR method relative to beta-actin
U-118-MG [41] = assay: Effect on TNFRSF1B mRNA expression in human U118MG cells at EC10 by qPCR method relative to beta-actin
SH-SY5Y [42] = assay: Effect on HLA-DRB1 mRNA expression in human SH-SY5Y cells at EC10 by qPCR method relative to beta-actin
SK-N-SH [43] = assay: Effect on CXCL9 mRNA expression in human SK-N-SH cells at EC10 by qPCR method relative to beta-actin
SH-SY5Y [44] = assay: Effect on TGFB1 mRNA expression in human SH-SY5Y cells at EC10 by qPCR method relative to beta-actin

## CCCCCCCCc1ccc(CCC(N)(CO)CO)cc1 [FINGOLIMOD]
SK-N-SH [1]
  fold change (FC): -7.7644
SH-SY5Y [2]
  fold change (FC): 3.2887
SH-SY5Y [3]
  fold change (FC): -4.7158
U-118-MG [4]
  fold change (FC): -8.4782
SK-N-SH [5]
  fold change (FC): -2.7499
SK-N-SH [6]
  fold change (FC): -4.0682
SK-N-SH [7]
  fold change (FC): -4.8631
SH-SY5Y [8]
  fold change (FC): -4.508
SK-N-SH [9]
  fold change (FC): -5.3866
SH-SY5Y [10]
  fold change (FC): 5.0193
U-118-MG [11]
  fold change (FC): -5.5428
SH-SY5Y [12]
  fold change (FC): -8.2392
SH-SY5Y [13]
  fold change (FC): -4.9331
SH-SY5Y [14]
  fold change (FC): -4.8232
U-118-MG [15]
  fold change (FC): -5.339
SH-SY5Y [16]
  fold change (FC): -5.1964
U-118-MG [17]
  fold change (FC): -4.2052
SH-SY5Y [18]
  fold change (FC): -9.4316
U-118-MG [19]
  fold change (FC): 4.8347
U-118-MG [20]
  fold change (FC): -3.664
SK-N-SH [21]
  fold change (FC): -12.2684
SH-SY5Y [22]
  fold change (FC): -3.9518
SK-N-SH [23]
  fold change (FC): -2.7547
SK-N-SH [24]
  fold change (FC): 7.6112
SH-SY5Y [25]
  fold change (FC): -13.7609
U-118-MG [26]
  fold change (FC): 3.242
SH-SY5Y [27]
  fold change (FC): -5.5022
SK-N-SH [28]
  fold change (FC): -5.9976
SK-N-SH [29]
  fold change (FC): -11.0378
SH-SY5Y [30]
  fold change (FC): -4.0629
SK-N-SH [31]
  fold change (FC): -4.444
SK-N-SH [32]
  fold change (FC): -3.7305
U-118-MG [33]
  fold change (FC): -3.53
SH-SY5Y [34]
  fold change (FC): -3.5677
U-118-MG [35]
  fold change (FC): -3.0183
SH-SY5Y [36]
  fold change (FC): 4.3772
U-118-MG [37]
  fold change (FC): -4.9203
U-118-MG [38]
  fold change (FC): -3.4017

## CCCCCCCCn1nnnc1CCC(N)(CO)CO.Cl
SK-N-SH [1]
  fold change (FC): -3.004
SH-SY5Y [2]
  fold change (FC): 8.9431
SH-SY5Y [3]
  fold change (FC): -6.5966
SK-N-SH [5]
  fold change (FC): -7.2696
SK-N-SH [7]
  fold change (FC): -5.0346
SH-SY5Y [8]
  fold change (FC): -5.0669
SK-N-SH [9]
  fold change (FC): -4.7796
SH-SY5Y [10]
  fold change (FC): 2.8007
U-118-MG [11]
  fold change (FC): -4.5394
SH-SY5Y [12]
  fold change (FC): -3.8516
SK-N-SH [39]
  fold change (FC): -3.5538
U-118-MG [15]
  fold change (FC): -5.8779
SH-SY5Y [16]
  fold change (FC): -2.7247
U-118-MG [17]
  fold change (FC): -4.6964
U-118-MG [40]
  fold change (FC): -4.2107
SH-SY5Y [18]
  fold change (FC): -4.1766
U-118-MG [19]
  fold change (FC): 4.8726
U-118-MG [20]
  fold change (FC): 3.1513
SK-N-SH [21]
  fold change (FC): -5.3124
SH-SY5Y [22]
  fold change (FC): -4.7071
SK-N-SH [23]
  fold change (FC): -7.8184
SK-N-SH [24]
  fold change (FC): 7.0402
SH-SY5Y [25]
  fold change (FC): -3.1434
U-118-MG [26]
  fold change (FC): 4.4344
SH-SY5Y [27]
  fold change (FC): -2.8938
SK-N-SH [28]
  fold change (FC): -5.1582
SK-N-SH [29]
  fold change (FC): -3.3101
SH-SY5Y [30]
  fold change (FC): 4.7801
SK-N-SH [31]
  fold change (FC): -3.4447
SK-N-SH [32]
  fold change (FC): -3.842
U-118-MG [33]
  fold change (FC): -2.9826
SH-SY5Y [34]
  fold change (FC): -4.7214
U-118-MG [35]
  fold change (FC): -5.0916
U-118-MG [37]
  fold change (FC): -4.1285

## CCCCCCCCn1nnnc1-c1ccc(C(O)CC(N)(CO)CO)cc1.Cl (configuration not stated)
U-118-MG [41]
  fold change (FC): -3.1207
U-118-MG [4]
  fold change (FC): -4.8547
SK-N-SH [6]
  fold change (FC): -5.716
SH-SY5Y [42]
  fold change (FC): -2.5613
SH-SY5Y [14]
  fold change (FC): -2.4869
U-118-MG [40]
  fold change (FC): -4.5247
SK-N-SH [43]
  fold change (FC): -4.8484
SH-SY5Y [36]
  fold change (FC): 2.631
SH-SY5Y [44]
  fold change (FC): -5.0784
U-118-MG [38]
  fold change (FC): -3.7241
